Data: US12410133B2, “Crystalline (r)-5-carbamoylpyridin-3-yl-2-methyl-4-(3-(trifluoromethoxy)benzyl)piperazine-1-carboxylate, compositions and methods of use thereof” (Celgene Corporation, priority 2018, dated 2025)
≈ marks a conversion by molar mass, not a printed value.

Experiments:
[1] = Solution stability test of Form A in physiologically relevant media at 37° C.; assay type: physicochemical; parameters: unit not given here
Description: A solution stability test of Form A was performed to assess substantial degradation of (R)-5-carbamoylpyridin-3-yl-2-methyl-4-(3-(trifluoromethoxy)benzyl)piperazine-1-carboxylate in physiologically relevant media. A solution of (R)-5-carbamoylpyridin-3-yl-2-methyl-4-(3-(trifluoromethoxy)benzyl)piperazine-1-carboxylate (1 mg/mL) was prepared in acetonitrile/water (50/50 v/v). Test medium (1990 μL) was added to a vial. Test media evaluated included buffers pH 1-8, simulated gastric fluid (SGF), fasted state simulated intestinal fluid (FaSSIF), and fed state simulated intestinal fluid (FeSSIF). Stock solution (10 μL) was added to the vial containing the medium. This mixture was stirred to mix well and transferred to a HPLC vial, which was placed in the autosampler maintained at 37° C. The vial was injected repeatedly every 4 hr for 24 hr.

[2] = Solubility of Form A in physiologically relevant media (37° C.); assay type: physicochemical

Structure (SMILES): C[C@@H]1CN(Cc2cccc(OC(F)(F)F)c2)CCN1C(=O)Oc1cncc(C(N)=O)c1 [Form A, (R)-5-carbamoylpyridin-3-yl-2-methyl-4-(3-(trifluoromethoxy)benzyl)piperazine-1-carboxylate]
- Solution chemical stability data ([1]; FaSSIF, 37° C., 0 hr): 100.0
- Solution chemical stability data ([1]; FaSSIF, 37° C., 4 hr): 100.6
- Solution chemical stability data ([1]; FaSSIF, 37° C., 8 hr): 100.2
- Solution chemical stability data ([1]; FaSSIF, 37° C., 12 hr): 100.5
- Solution chemical stability data ([1]; FaSSIF, 37° C., 16 hr): 100.3
- Solution chemical stability data ([1]; FaSSIF, 37° C., 20 hr): 100.0
- Solution chemical stability data ([1]; FaSSIF, 37° C., 24 hr): 100.0
- Solution chemical stability data ([1]; FeSSIF, 37° C., 0 hr): 100.0
- Solution chemical stability data ([1]; FeSSIF, 37° C., 4 hr): 99.6
- Solution chemical stability data ([1]; FeSSIF, 37° C., 8 hr): 100.2
- Solution chemical stability data ([1]; FeSSIF, 37° C., 12 hr): 99.7
- Solution chemical stability data ([1]; FeSSIF, 37° C., 16 hr): 99.6
- Solution chemical stability data ([1]; FeSSIF, 37° C., 20 hr): 99.8
- Solution chemical stability data ([1]; FeSSIF, 37° C., 24 hr): 99.7
- Solution chemical stability data ([1]; SGF, 37° C., 0 hr): 100.0
- Solution chemical stability data ([1]; SGF, 37° C., 4 hr): 100.2
- Solution chemical stability data ([1]; SGF, 37° C., 8 hr): 100.1
- Solution chemical stability data ([1]; SGF, 37° C., 12 hr): 99.2
- Solution chemical stability data ([1]; SGF, 37° C., 16 hr): 99.7
- Solution chemical stability data ([1]; SGF, 37° C., 20 hr): 100.4
- Solution chemical stability data ([1]; SGF, 37° C., 24 hr): 99.6
- Solution chemical stability data ([1]; pH = 1, 37° C., 0 hr): 100.0
- Solution chemical stability data ([1]; pH = 1, 37° C., 4 hr): 99.6
- Solution chemical stability data ([1]; pH = 1, 37° C., 8 hr): 100.3
- Solution chemical stability data ([1]; pH = 1, 37° C., 12 hr): 100.3
- Solution chemical stability data ([1]; pH = 1, 37° C., 16 hr): 99.9
- Solution chemical stability data ([1]; pH = 1, 37° C., 20 hr): 101.9
- Solution chemical stability data ([1]; pH = 1, 37° C., 24 hr): 100.5
- Solution chemical stability data ([1]; pH = 3, 37° C., 0 hr): 100.0
- Solution chemical stability data ([1]; pH = 3, 37° C., 4 hr): 99.8
- Solution chemical stability data ([1]; pH = 3, 37° C., 8 hr): 99.8
- Solution chemical stability data ([1]; pH = 3, 37° C., 12 hr): 98.5
- Solution chemical stability data ([1]; pH = 3, 37° C., 16 hr): 99.3
- Solution chemical stability data ([1]; pH = 3, 37° C., 20 hr): 99.6
- Solution chemical stability data ([1]; pH = 3, 37° C., 24 hr): 99.5
- Solution chemical stability data ([1]; pH = 5.0, 37° C., 0 hr): 100.0
- Solution chemical stability data ([1]; pH = 5.0, 37° C., 4 hr): 100.9
- Solution chemical stability data ([1]; pH = 5.0, 37° C., 8 hr): 101.7
- Solution chemical stability data ([1]; pH = 5.0, 37° C., 12 hr): 99.9
- Solution chemical stability data ([1]; pH = 5.0, 37° C., 16 hr): 100.7
- Solution chemical stability data ([1]; pH = 5.0, 37° C., 20 hr): 99.9
- Solution chemical stability data ([1]; pH = 5.0, 37° C., 24 hr): 99.6
- Solution chemical stability data ([1]; pH = 6.8, 37° C., 0 hr): 100.0
- Solution chemical stability data ([1]; pH = 6.8, 37° C., 4 hr): 100.2
- Solution chemical stability data ([1]; pH = 6.8, 37° C., 8 hr): 100.8
- Solution chemical stability data ([1]; pH = 6.8, 37° C., 12 hr): 100.1
- Solution chemical stability data ([1]; pH = 6.8, 37° C., 16 hr): 100.0
- Solution chemical stability data ([1]; pH = 6.8, 37° C., 20 hr): 99.6
- Solution chemical stability data ([1]; pH = 6.8, 37° C., 24 hr): 99.0
- Solution chemical stability data ([1]; pH = 8.0, 37° C., 0 hr): 100.0
- Solution chemical stability data ([1]; pH = 8.0, 37° C., 4 hr): 101.3
- Solution chemical stability data ([1]; pH = 8.0, 37° C., 8 hr): 100.5
- Solution chemical stability data ([1]; pH = 8.0, 37° C., 12 hr): 99.7
- Solution chemical stability data ([1]; pH = 8.0, 37° C., 16 hr): 100.1
- Solution chemical stability data ([1]; pH = 8.0, 37° C., 20 hr): 98.7
- Solution chemical stability data ([1]; pH = 8.0, 37° C., 24 hr): 99.4
- solubility ([2]; HCl/NaCl buffer pH 1.0, simulated gastric fluid, thermodynamic from solid, pH 1.0 HCl/NaCl buffer, final measured pH 1.47): > 20000 µg/mL
- solubility ([2]; acetate buffer pH 4, aqueous buffer, thermodynamic from solid, pH 4 Acetate buffer, final measured pH 4.18): 696 µg/mL (≈ 1590 µM)
- solubility ([2]; acetate buffer pH 5, aqueous buffer, thermodynamic from solid, pH 5 Acetate buffer, final measured pH 5.14): 91 µg/mL (≈ 208 µM)
- solubility ([2]; aqueous buffer, thermodynamic from solid, pH 4 (0.0001N HCl), final measured pH 7.78): 11 µg/mL (≈ 25.1 µM)
- solubility ([2]; pH 4.9, aqueous buffer, thermodynamic from solid, pH 3 (0.001N HCl), final measured pH 4.90): 57 µg/mL (≈ 130 µM)
- solubility ([2]; pH 8.1, thermodynamic from solid, Water, final measured pH 8.10): 12 µg/mL (≈ 27.4 µM)
- solubility ([2]; phosphate buffer pH 2.5, aqueous buffer, thermodynamic from solid, pH 2.5 Phosphate buffer, final measured pH 3.44): 4330 µg/mL (≈ 9870 µM)
- solubility ([2]; phosphate buffer pH 3, pH 4.2, aqueous buffer, thermodynamic from solid, pH 3 Phosphae buffer, final measured pH 4.20): 1250 µg/mL (≈ 2850 µM)
- solubility ([2]; phosphate buffer pH 6.8, aqueous buffer, thermodynamic from solid, pH 6.8 Phosphate buffer, final measured pH 6.88): 7 µg/mL (≈ 16 µM)
- solubility ([2]; phosphate buffer pH 8.0, pH 8.1, aqueous buffer, thermodynamic from solid, pH 8.0 Phosphate buffer, final measured pH 8.10): 5 µg/mL (≈ 11.4 µM)
- solubility ([2]; simulated gastric fluid, thermodynamic from solid, SGF with pepsin, final measured pH 1.75): > 20000 µg/mL
- solubility ([2]; simulated gastric fluid, thermodynamic from solid, pH 1 (0.1N HCl), final measured pH 1.48): > 20000 µg/mL
